Results: publication PMC11659749 (RSC Advances, 2024)
In brackets after ≈: the same amount, converted by molar mass.

What was measured:
P. aeruginosa ATCC 10145 [1] = assay: Biofilm formation inhibition, crystal violet assay; type: cell-based, Pseudomonas aeruginosa; conditions: at the corresponding MIC
MRSA ATCC 43300 [2] = assay: Inhibition zone, MIC and MBC; type: cell-based, Staphylococcus aureus
K. pneumonia ATCC 13883 [3] = assay: Inhibition zone, MIC and MBC; type: cell-based, Klebsiella pneumoniae
C. albicans ATCC 10231 [4] = assay: Inhibition zone, MIC and MBC; type: cell-based; conditions: Candida albicans, ATCC10231
C. albicans ATCC 10231 [5] = assay: Biofilm formation inhibition, crystal violet assay; type: cell-based, Candida albicans; conditions: at the corresponding MIC
P. aeruginosa ATCC 10145 [6] = assay: Inhibition zone, MIC and MBC; type: cell-based, Pseudomonas aeruginosa
K. pneumonia ATCC 13883 [7] = assay: Biofilm formation inhibition, crystal violet assay; type: cell-based, Klebsiella pneumoniae; conditions: at the corresponding MIC
E. coli ATCC 25922 [8] = assay: Inhibition zone, MIC and MBC; type: cell-based
MRSA ATCC 43300 [9] = assay: Biofilm formation inhibition, crystal violet assay; type: cell-based, Staphylococcus aureus; conditions: at the corresponding MIC
E. coli ATCC 25922 [10] = assay: Biofilm formation inhibition, crystal violet assay; type: cell-based; conditions: at the corresponding MIC
[11] = test system: C. albicans SS5314 (wild type); assay: MIC, broth microdilution; type: cell-based; conditions: Candida albicans
[12] = test system: Enterococcus faecalis ATCC 51299; assay: MIC, broth microdilution; type: cell-based; conditions: ATCC51299
[13] = test system: MRSA NRS384 (MRSA USA300); assay: MIC, broth microdilution; type: cell-based, methicillin-resistant Staphylococcus aureus; conditions: Staphylococcus aureus
[14] = test system: E. coli JW55031 (TolC mutant); assay: MIC, broth microdilution; type: cell-based; conditions: Escherichia coli
[15] = test system: methicillin-resistant Staphylococcus aureus; assay: Time-kill assay; type: cell-based; conditions: 4 × MIC, 24 hours incubation at 37 °C
[16] = test system: Neisseria gonorrhoeae 181; assay: MIC, broth microdilution; type: cell-based; conditions: Neisseria gonorrhoeae, 181, Neisseria gonorrhoeae 181
[17] = test system: Clostridium difficile ATCC BAA 1870; assay: MIC, broth microdilution; type: cell-based; conditions: Clostridioides difficile, BAA1870, Clostridium difficile ATCC BAA 1870
human erythrocytes = assay: Hemolytic activity; type: cell-based; conditions: up to 64 μg mL^−1, 37 °C for 1 h
[18] = test system: Escherichia coli BW25113 (wild type); assay: MIC, broth microdilution; type: cell-based
[19] = Staphylococcus aureus, ATCC43300|MRSA
[20] = Klebsiella pneumoniae, ATCC13883
[21] = Pseudomonas aeruginosa, ATCC10145

| Compound | MIC [11] [µg/mL] | MIC [12] [µg/mL] | MIC [13] [µg/mL] | MIC [14] [µg/mL] | MIC [16] [µg/mL] | MIC [17] [µg/mL] | MIC [18] [µg/mL] | also measured |
| --- | --- | --- | --- | --- | --- | --- | --- | --- |
| CO/N=C(\C(=O)N[C@@H]1C(=O)N2C(C(=O)O)=C(CSc3nc(=O)c(=O)[nH]n3C)CS[C@H]12)c1csc(N)n1 [Ceftriaxone] | – | – | – | – | – | – | – | Inhibition of biofilm formation (%) (P. aeruginosa ATCC 10145 [1]): 74.39 ± 0.68%; IZD (MRSA ATCC 43300 [2]; MRSA ATCC 43300, mean ± SD): 30.34 ± 1.24 millimeters; MBC (MRSA ATCC 43300 [2]; [19]): 8 µg/mL (≈ 14.4 µM); MIC (MRSA ATCC 43300 [2]; [19]): 8 µg/mL (≈ 14.4 µM); IZD (K. pneumonia ATCC 13883 [3]; K. pneumonia ATCC 13883, mean ± SD): 34.34 ± 0.47 millimeters; MBC (K. pneumonia ATCC 13883 [3]; [20]): 8 µg/mL (≈ 14.4 µM); MIC (K. pneumonia ATCC 13883 [3]; [20]): 4 µg/mL (≈ 7.21 µM); MBC (C. albicans ATCC 10231 [4]): 31.2 µg/mL (≈ 56.3 µM); MIC (C. albicans ATCC 10231 [4]): 7.8 µg/mL (≈ 14.1 µM); Inhibition of biofilm formation (%) (C. albicans ATCC 10231 [5]): 82.50 ± 0.14%; IZD (P. aeruginosa ATCC 10145 [6]; P. aeruginosa ATCC 10145, mean ± SD): 35 ±1.85 millimeters; MBC (P. aeruginosa ATCC 10145 [6]; [21]): 16 µg/mL (≈ 28.9 µM); MIC (P. aeruginosa ATCC 10145 [6]; [21]): 8 µg/mL (≈ 14.4 µM); Inhibition of biofilm formation (%) (K. pneumonia ATCC 13883 [7]): 61.23 ± 0.22%; IZD (E. coli ATCC 25922 [8]; E. coli ATCC 25922, mean ± SD): 36 ± 1.50 millimeters; MBC (E. coli ATCC 25922 [8]; Escherichia coli, ATCC25922): 32 µg/mL (≈ 57.7 µM); MIC (E. coli ATCC 25922 [8]; Escherichia coli, ATCC25922): 16 µg/mL (≈ 28.9 µM); Inhibition of biofilm formation (%) (MRSA ATCC 43300 [9]): 73.262 ± 0.21%; Inhibition of biofilm formation (%) (E. coli ATCC 25922 [10]): 59.14 ± 0.16% |
| CN[C@H](CC(C)C)C(=O)N[C@H]1C(=O)N[C@@H](CC(N)=O)C(=O)N[C@H]2C(=O)N[C@H]3C(=O)N[C@H](C(=O)N[C@H](C(=O)O)c4cc(O)cc(O)c4-c4cc3ccc4O)[C@H](O)c3ccc(c(Cl)c3)Oc3cc2cc(c3O[C@@H]2O[C@H](CO)[C@@H](O)[C@H](O)[C@H]2O[C@H]2C[C@](C)(N)[C@H](O)[C@H](C)O2)Oc2ccc(cc2Cl)[C@H]1O [Vancomycin, reference compound] | > 64 | 64 (≈ 44.2 µM) | 1 (≈ 0.69 µM) | 16 (≈ 11 µM) | > 64 | 1 (≈ 0.69 µM) | – | time to complete bacterial eradication [15]: about 24 hours |
| O=C(O)c1cn(C2CC2)c2cc(N3CCNCC3)c(F)cc2c1=O [ciprofloxacin] | – | – | – | – | – | – | – | hemolytic activity (human erythrocytes): 15% |
| CNC(C)C1CCC(N)C(OC2C(N)CC(N)C(OC3OCC(C)(O)C(NC)C3O)C2O)O1 (stereo not shown) [Gentamicin, reference compound] | – | – | – | 0.25 (≈ 0.523 µM) | – | – | – | – |
| CC(=NNC(=N)N)c1nnn(-c2ccc(C#CC3CC3)cc2)c1C [Compound 24, 2-(1-(1-(4-(Cyclopropylethynyl)phenyl)-5-methyl-1H-1,2,3-triazol-4-yl)ethylidene)hydrazine-1-carboximidamide] | > 64 | > 64 | 64 (≈ 199 µM) | 64 (≈ 199 µM) | > 64 | 64 (≈ 199 µM) | > 64 | – |
| CCCCCCC#Cc1ccc(-n2nnc(C(C)=NNC(=N)N)c2C)cc1 [Compound 22, 2-(1-(1-(4-(Oct-1-yn-1-yl)phenyl)-5-methyl-1H-1,2,3-triazol-4-yl)ethylidene)hydrazine-1-carboximidamide] | 64 (≈ 175 µM) | 64 (≈ 175 µM) | 64 (≈ 175 µM) | 64 (≈ 175 µM) | > 64 | 64 (≈ 175 µM) | > 64 | – |
| CC(=NNC(=N)N)c1nnn(-c2ccc(C#CC3CCCCC3)cc2)c1C [Compound 26, 2-(1-(1-(4-(Cyclohexylethynyl)phenyl)-5-methyl-1H-1,2,3-triazol-4-yl)ethylidene)hydrazine-1-carboximidamide] | 16 (≈ 44 µM) | 8 (≈ 22 µM) | 16 (≈ 44 µM) | 64 (≈ 176 µM) | > 64 | 16 (≈ 44 µM) | > 64 | – |
| CC(=NNC(=N)N)c1nnn(-c2ccc(C#Cc3ccc(C)cc3)cc2)c1C [Compound 31, 2-(1-(5-Methyl-1-(4-(p-tolylethynyl)phenyl)-1H-1,2,3-triazol-4-yl)ethylidene)hydrazine-1-carboximidamide] | 2 (≈ 5.38 µM) | 8 (≈ 21.5 µM) | 8 (≈ 21.5 µM) | 4 (≈ 10.8 µM) | > 64 | 2 (≈ 5.38 µM) | > 64 | – |
| CC(=NNC(=N)N)c1nnn(-c2ccc(C#CCC(C)C)cc2)c1C [Compound 20, 2-(1-(5-Methyl-1-(4-(4-methylpent-1-yn-1-yl)phenyl)-1H-1,2,3-triazol-4-yl)ethylidene)hydrazine-1-carboximidamide] | 8 (≈ 23.7 µM) | 8 (≈ 23.7 µM) | ≤ 4 | 8 (≈ 23.7 µM) | 32 (≈ 94.8 µM) | 8 (≈ 23.7 µM) | > 64 | – |
| CCCCC#Cc1ccc(-n2nnc(C(C)=NNC(=N)N)c2C)cc1 [Compound 21, 2-(1-(1-(4-(Hex-1-yn-1-yl)phenyl)-5-methyl-1H-1,2,3-triazol-4-yl)ethylidene)hydrazine-1-carboximidamide] | 16 (≈ 47.4 µM) | 32 (≈ 94.8 µM) | 32 (≈ 94.8 µM) | 32 (≈ 94.8 µM) | > 64 | 16 (≈ 47.4 µM) | > 64 | – |
| CC(=NNC(=N)N)c1nnn(-c2ccc(C#Cc3ccccc3)cc2)c1C [Compound 30, 2-(1-(5-Methyl-1-(4-(phenylethynyl)phenyl)-1H-1,2,3-triazol-4-yl)ethylidene)hydrazine-1-carboximidamide] | 8 (≈ 22.4 µM) | 16 (≈ 44.8 µM) | ≤ 4 | 16 (≈ 44.8 µM) | > 64 | > 64 | > 64 | time to complete bacterial eradication [15]: ≤ 24 h |
| CC(=O)NC[C@H]1CN(c2ccc(N3CCOCC3)c(F)c2)C(=O)O1 [Linezolid, reference compound] | > 64 | 1 (≈ 2.96 µM) | 1 (≈ 2.96 µM) | 8 (≈ 23.7 µM) | 64 (≈ 190 µM) | 1 (≈ 2.96 µM) | – | – |
| CN(C)[C@@H]1C(O)=C(C(N)=O)C(=O)[C@@]2(O)C(O)=C3C(=O)c4c(O)cccc4[C@@](C)(O)[C@H]3C[C@@H]12 [Tetracycline, reference compound] | – | – | – | – | 2 (≈ 4.5 µM) | – | – | – |
| CCCC#Cc1ccc(-n2nnc(C(C)=NNC(=N)N)c2C)cc1 [Compound 19, 2-(1-(5-Methyl-1-(4-(pent-1-yn-1-yl)phenyl)-1H-1,2,3-triazol-4-yl)ethylidene)hydrazine-1-carboximidamide] | 16 (≈ 49.5 µM) | 8 (≈ 24.7 µM) | 32 (≈ 98.9 µM) | 32 (≈ 98.9 µM) | 64 (≈ 198 µM) | 32 (≈ 98.9 µM) | > 64 | – |
| OC(Cn1cncn1)(Cn1cncn1)c1ccc(F)cc1F [Fluconazole, reference compound] | 0.5 (≈ 1.63 µM) | – | – | – | – | – | – | – |
| CC(=NNC(=N)N)c1nnn(-c2ccc(C#CC3CCCC3)cc2)c1C [Compound 25, 2-(1-(1-(4-(Cyclopentylethynyl)phenyl)-5-methyl-1H-1,2,3-triazol-4-yl)ethylidene)hydrazine-1-carboximidamide] | > 64 | > 64 | 64 (≈ 183 µM) | 64 (≈ 183 µM) | 64 (≈ 183 µM) | > 64 | > 64 | – |
